According to ChEMBL document CHEMBL1121737, “Synthesis and evaluation of some stable multisubstrate adducts as specific inhibitors of spermidine synthase” (J Med Chem, 1981):

Assays:
[1] = molecular target: T1, Spermidine synthase (Rattus norvegicus) (UniProt Q99MI5); test: Inhibition of spermidine synthase at 10 uM concentration of the compound; values are per cent of control
T1 sequence (whole entry): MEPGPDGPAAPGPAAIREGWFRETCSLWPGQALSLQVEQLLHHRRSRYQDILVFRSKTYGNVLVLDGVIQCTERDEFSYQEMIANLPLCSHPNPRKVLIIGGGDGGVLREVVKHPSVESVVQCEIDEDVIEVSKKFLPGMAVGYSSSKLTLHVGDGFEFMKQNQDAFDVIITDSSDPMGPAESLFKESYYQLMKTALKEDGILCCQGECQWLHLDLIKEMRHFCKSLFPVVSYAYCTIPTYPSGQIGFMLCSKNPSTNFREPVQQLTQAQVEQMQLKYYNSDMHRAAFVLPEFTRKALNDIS

[2] = molecular target: T1, Spermidine synthase (Rattus norvegicus); test: Inhibition of spermidine synthase at 100 uM concentration of the compound; values are per cent of control
[3] = molecular target: T1, Spermidine synthase (Rattus norvegicus); test: Inhibition of spermidine synthase at 50 uM concentration of the compound; values are per cent of control
[4] = molecular target: T1, Spermidine synthase (Rattus norvegicus); test: Inhibition of spermidine synthase at 25 uM concentration of the compound; values are per cent of control
[5] = molecular target: T1, Spermidine synthase (Rattus norvegicus); test: Inhibition of spermidine synthase at 5 uM concentration of the compound; values are per cent of control
[6] = system: spermine synthase (Rattus norvegicus); test: Inhibition of spermine synthase at 250 uM concentration of the compound; values are per cent of control
[7] = system: spermine synthase (Rattus norvegicus); test: Inhibition of spermine synthase at 100 uM concentration of the compound; values are per cent of control
Spermidine synthase = molecular target: T2, Spermidine synthase (Rattus norvegicus, UniProt Q99MI5); test: Inhibitory activity against spermidine synthase; settings: read-out: I50
T2 sequence (Q99MI5 whole entry): T1 sequence (whole entry)

[8] = system: spermine synthase (Rattus norvegicus); test: Inhibition of spermine synthase at 10 uM concentration of the compound; values are per cent of control
[9] = system: spermine synthase (Rattus norvegicus); test: Inhibition of spermine synthase at 50 uM concentration of the compound; values are per cent of control
[10] = molecular target: T1, Spermidine synthase (Rattus norvegicus); test: Inhibition of spermidine synthase at 250 uM concentration of the compound; values are per cent of control
[11] = system: spermine synthase (Rattus norvegicus); test: Inhibition of spermine synthase at 25 uM concentration of the compound; values are per cent of control

With `NCCCCCC(CCN)SC[C@H]1O[C@@H](n2cnc3c(N)ncnc32)[C@H](O)[C@@H]1O` (stereo partly drawn) the residual activity [1] was 3%, the residual activity [2] was 1% and the residual activity [3] was 1%. The residual activity [4] was 3%.
Compound `C[S+](C[C@H]1O[C@H](n2cnc3c(N)ncnc32)[C@H](O)[C@@H]1O)C(CCN)CCCCCN` (stereo partly drawn) has a residual activity [5] of 84%, a residual activity [6] of 14% and a residual activity [7] of 41%. For the same compound, the IC50 (Spermidine synthase) was 15 µM, the residual activity [8] was 93% and the residual activity [9] was 60%. It also gave a residual activity [1] of 68%, a residual activity [2] of 8% and a residual activity [3] of 16%. It also gave a residual activity [4] of 31% and a residual activity [10] of 4%.
With `CCCCCC(CC)[S+](C)C[C@H]1O[C@H](n2cnc3c(N)ncnc32)[C@H](O)[C@@H]1O` (stereo partly drawn) the residual activity [11] was 88%, the residual activity [6] was 25% and the residual activity [7] was 44%. The IC50 (Spermidine synthase) was 250 µM, the residual activity [8] was 94% and the residual activity [9] was 65%. It also gave a residual activity [1] of 98%, a residual activity [2] of 80% and a residual activity [3] of 93%. It also gave a residual activity [4] of 99% and a residual activity [10] of 56%.
With `CCCCCC(CC)SC[C@H]1OC(n2cnc3c(N)ncnc32)[C@H](O)[C@@H]1O` (stereo partly drawn) the residual activity [2] was 104% and the residual activity [4] was 102%.
